Test results: the NIST ThermoML archive (doi:10.1021/je400539h)
Several values for one entry are separate records, joined by “and”; a condition that tells them apart may be missing. Equal entries are not always repeated. ± gives the expanded uncertainty stated by the source.

Assays:
[1] = 101 kPa, Liquid
[2] = xn = mol fraction of the nth substance listed; conditions: 101 kPa, Liquid

C=COCCCC [1-(ethenyloxy)butane]
[1]
Conditions | mass density [kg/m3] | speed of sound [m/s] | viscosity [mPa·s]
298.15 K | 780.2 ± 1.9 | 1096 ± 10 | 0.4 ± 0.015
303.15 K | 774.1 ± 1.9 | 1084 ± 10 | 0.387 ± 0.014
308.15 K | 768.2 ± 2 | 1072 ± 10 | 0.365 ± 0.014
313.15 K | 763.3 ± 2 | 1060 ± 10 | 0.354 ± 0.014

CCCCCCOC(C)=O [hexyl ethanoate]
[1]
Conditions | mass density [kg/m3] | speed of sound [m/s] | viscosity
298.15 K | 868.3 ± 1.5 | 1236 ± 11 | 1.071 ± 0.026 mPa·s
303.15 K | 863.9 ± 1.5 | 1216 ± 11 | 0.982 ± 0.024 mPa·s
308.15 K | 859.8 ± 1.5 | 1196 ± 11 | 0.898 ± 0.023 mPa·s and 0.899 ± 0.023 mPa·s
313.15 K | 855 ± 1.5 | 1176 ± 10 | 0.836 ± 0.022 mPa·s

C1COCCO1 [1,4-dioxane]
[1]
Conditions | mass density [kg/m3] | speed of sound [m/s] | viscosity [mPa·s]
298.15 K | 1028.2 ± 1 | 1328 ± 11 | 1.159 ± 0.028
303.15 K | 1022.7 ± 1 | 1320 ± 11 | 1.087 ± 0.027
308.15 K | 1017.4 ± 1 | 1312 ± 11 | 1.013 ± 0.025
313.15 K | 1011.1 ± 1 | 1304 ± 11 | 0.934 ± 0.023

COc1ccccc1 [anisole]
[1]
Conditions | mass density [kg/m3] | speed of sound [m/s] | viscosity [mPa·s]
298.15 K | 993.6 ± 1 | 1396 ± 12 | 0.97 ± 0.024
303.15 K | 989.4 ± 1 | 1380 ± 12 | 0.917 ± 0.023
308.15 K | 984.6 ± 1 | 1364 ± 12 | 0.863 ± 0.022
313.15 K | 980 ± 1 | 1348 ± 11 | 0.803 ± 0.021

C1CCOC1 [tetrahydrofuran]
[1]
Conditions | mass density [kg/m3] | speed of sound [m/s] | viscosity [mPa·s]
298.15 K | 881.5 ± 1.4 | 1268 ± 11 | 0.45 ± 0.015
303.15 K | 878.7 ± 1.4 | 1248 ± 11 | 0.439 ± 0.015
308.15 K | 873 ± 1.4 | 1228 ± 11 | 0.429 ± 0.015
313.15 K | 866.9 ± 1.5 | 1212 ± 11 | 0.404 ± 0.015

CCCCCCOC(C)=O [hexyl ethanoate] + C1CCOC1
[2]
Conditions | mass density [kg/m3] | speed of sound [m/s] | viscosity [mPa·s]
298.15 K, x1 = 0.0514 | 882.2 ± 1.4 | 1260 ± 11 | 0.485 ± 0.016
298.15 K, x1 = 0.1091 | 882.2 ± 1.4 | 1256 ± 11 | 0.526 ± 0.017
298.15 K, x1 = 0.1735 | 882.1 ± 1.4 | 1248 ± 11 | 0.57 ± 0.017
298.15 K, x1 = 0.2467 | 881.7 ± 1.4 | 1240 ± 11 | 0.616 ± 0.018
298.15 K, x1 = 0.3289 | 880.9 ± 1.4 | 1236 ± 11 | 0.669 ± 0.019
298.15 K, x1 = 0.4241 | 879.6 ± 1.4 | 1232 ± 11 | 0.73 ± 0.02
298.15 K, x1 = 0.5384 | 877.8 ± 1.4 | 1232 ± 11 | 0.79 ± 0.021
298.15 K, x1 = 0.6648 | 875.5 ± 1.4 | 1232 ± 11 | 0.875 ± 0.022
298.15 K, x1 = 0.8185 | 872.4 ± 1.4 | 1232 ± 11 | 0.967 ± 0.024
298.15 K, x1 = 1 | 868.3 ± 1.5 | 1236 ± 11 | 1.071 ± 0.026
303.15 K, x1 = 0.0514 | 878.8 ± 1.4 | 1236 ± 11 | 0.471 ± 0.016
303.15 K, x1 = 0.1091 | 878.6 ± 1.4 | 1232 ± 11 | 0.504 ± 0.016
303.15 K, x1 = 0.1735 | 878.3 ± 1.4 | 1224 ± 11 | 0.543 ± 0.017
303.15 K, x1 = 0.2467 | 877.6 ± 1.4 | 1212 ± 11 | 0.584 ± 0.018
303.15 K, x1 = 0.3289 | 876.6 ± 1.4 | 1208 ± 11 | 0.632 ± 0.018
303.15 K, x1 = 0.4241 | 875.2 ± 1.4 | 1204 ± 11 | 0.683 ± 0.019
303.15 K, x1 = 0.5384 | 873.3 ± 1.4 | 1204 ± 11 | 0.745 ± 0.02
303.15 K, x1 = 0.6648 | 870.9 ± 1.4 | 1204 ± 11 | 0.812 ± 0.021
303.15 K, x1 = 0.8185 | 867.7 ± 1.5 | 1204 ± 11 | 0.892 ± 0.023
303.15 K, x1 = 1 | 863.9 ± 1.5 | 1216 ± 11 | 0.982 ± 0.024
308.15 K, x1 = 0.0514 | 872.9 ± 1.4 | 1216 ± 11 | 0.456 ± 0.016
308.15 K, x1 = 0.1091 | 872.7 ± 1.4 | 1208 ± 11 | 0.484 ± 0.016
308.15 K, x1 = 0.1735 | 872.4 ± 1.4 | 1200 ± 11 | 0.518 ± 0.016
308.15 K, x1 = 0.2467 | 871.9 ± 1.4 | 1188 ± 10 | 0.554 ± 0.017
308.15 K, x1 = 0.3289 | 871.2 ± 1.4 | 1184 ± 10 | 0.595 ± 0.018
308.15 K, x1 = 0.4241 | 870 ± 1.4 | 1180 ± 10 | 0.641 ± 0.018
308.15 K, x1 = 0.5384 | 868.2 ± 1.5 | 1180 ± 10 | 0.692 ± 0.019
308.15 K, x1 = 0.6648 | 866 ± 1.5 | 1180 ± 10 | 0.751 ± 0.02
308.15 K, x1 = 0.8185 | 863 ± 1.5 | 1180 ± 10 | 0.819 ± 0.022
308.15 K, x1 = 1 | 859.8 ± 1.5 | 1196 ± 11 | 0.898 ± 0.023
313.15 K, x1 = 0.0514 | 866.7 ± 1.5 | 1200 ± 11 | 0.416 ± 0.015
313.15 K, x1 = 0.1091 | 866.5 ± 1.5 | 1188 ± 10 | 0.444 ± 0.015
313.15 K, x1 = 0.1735 | 866.2 ± 1.5 | 1176 ± 10 | 0.475 ± 0.016
313.15 K, x1 = 0.2467 | 865.8 ± 1.5 | 1168 ± 10 | 0.508 ± 0.016
313.15 K, x1 = 0.3289 | 865.2 ± 1.5 | 1164 ± 10 | 0.547 ± 0.017
313.15 K, x1 = 0.4241 | 864.2 ± 1.5 | 1156 ± 10 | 0.591 ± 0.018
313.15 K, x1 = 0.5384 | 862.6 ± 1.5 | 1152 ± 10 | 0.639 ± 0.018
313.15 K, x1 = 0.6648 | 860.5 ± 1.5 | 1152 ± 10 | 0.695 ± 0.019
313.15 K, x1 = 0.8185 | 857.8 ± 1.5 | 1152 ± 10 | 0.761 ± 0.02
313.15 K, x1 = 1 | 855 ± 1.5 | 1176 ± 10 | 0.836 ± 0.022
